Assay results as given in patent publication US20150252048A1, “SUBSTITUTED N-(3-PYRIMIDIN-4-YL)PHENYL)ACRYLAMIDE ANALOGS AS TYROSINE RECEPTOR KINASE BTK INHIBITORS” (UNIVERSITY OF UTAH RESEARCH FOUNDATION, priority 2012, published 2015).
Like-named read-outs stand apart in the source and are kept apart here.

Experiments:
[1] = molecular target: T1, Cytochrome P450 1A2 (Homo sapiens, UniProt P05177); experiment: Cytochrome P450 inhibition (P450 BACULOSOMES, Vivid substrates); type: in vitro ADME; details: 10-point titration, duplicate; read-out: CYP Activity 1A2 IC50
T1 construct: purchased Invitrogen
T1 sequence (P05177 1-516): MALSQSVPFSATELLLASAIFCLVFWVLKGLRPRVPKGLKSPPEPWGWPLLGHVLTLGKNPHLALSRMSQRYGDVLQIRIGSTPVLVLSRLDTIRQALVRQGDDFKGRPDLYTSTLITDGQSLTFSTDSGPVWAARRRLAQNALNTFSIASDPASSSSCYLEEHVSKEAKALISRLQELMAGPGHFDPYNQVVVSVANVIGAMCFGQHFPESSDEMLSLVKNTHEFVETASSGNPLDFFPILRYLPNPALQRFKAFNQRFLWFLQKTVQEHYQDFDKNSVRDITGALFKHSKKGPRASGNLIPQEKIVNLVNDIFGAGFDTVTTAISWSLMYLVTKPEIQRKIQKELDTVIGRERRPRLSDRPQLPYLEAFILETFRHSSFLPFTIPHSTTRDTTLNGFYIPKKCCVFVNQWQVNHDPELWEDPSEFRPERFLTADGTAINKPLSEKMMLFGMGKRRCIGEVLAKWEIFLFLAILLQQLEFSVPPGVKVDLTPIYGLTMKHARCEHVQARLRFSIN
Experimental: (§1) A number of ADME properties were determined for a representative disclosed compound, compound 3 (N-(3-(6-((3-morpholinophenyl)amino)-1H-pyrazolo[3,4-d]pyrimidin-4-yl)phenyl)acrylamide), which corresponds to compound 3 in Table I. Drug inhibition of cytochrome P450 enzymes is a common cause of drug-drug intereaction issues in the clinic. The compound was tested in assays for commonly screened Cytochrome P450s, specifically the 1A2, 2C9, 2C19, 2D6, and 3A4 isoforms. The IC50 determinations were performed in duplicate using 10-point titrations of test compound using Invitrogen P450 BACULOSOMES® reagents and Vivid® CyP450 Screening substrates.

[2] = molecular target: T2, Cytochrome P450 2C19 (Homo sapiens, UniProt P33261); experiment: as above; type: in vitro ADME; details: 10-point titration, duplicate; read-out: CYP Activity 2C19 IC50
T2 construct: purchased Invitrogen
Experimental: as §1

[3] = molecular target: T3, Cytochrome P450 2C9 (Homo sapiens, UniProt P11712); experiment: as above; type: in vitro ADME; details: 10-point titration, duplicate; read-out: CYP Activity 2C9 IC50
T3 construct: purchased Invitrogen
Experimental: as §1

[4] = molecular target: T4, Cytochrome P450 2D6 (Homo sapiens, UniProt P10635); experiment: as above; type: in vitro ADME; details: 10-point titration, duplicate; read-out: CYP Activity 2D6 IC50
T4 construct: purchased Invitrogen
Experimental: as §1

[5] = molecular target: T5, Cytochrome P450 3A4 (Homo sapiens, UniProt P08684); experiment: as above; type: in vitro ADME
T5 construct: purchased Invitrogen
Experimental: as §1

[6] = Microsomal stability; type: in vitro ADME, human; details: for Compound Remaining: human microsomes 0.5 mg protein/mL, 1 μM
Experimental: Data were also obtained for the stability of Compound 3 when incubated with a microsomal preparation. Drug metabolism can occur, at least in part, in cellular microsomes, and thus the assay assesses the stability of drug to metabolic modification. The concentration of compound 3 was 1 μM in the assay system and the indicated microsomes were present at 0.5 mg total protein per milliliter. The concentration of intact drug was determined at the indicated timepoints using a LC-MS/MS assay. The enzyme activity of the microsomes used in this study were assessed using a positive control, testosterone.

[7] = Pharmacokinetics in mice; type: in vivo; details: mouse, plasma
Experimental: The pharmacokinetic behavior of a representative disclosed compound, compound 3 (N-(3-(6-((3-morpholinophenyl)amino)-1H-pyrazolo[3,4-d]pyrimidin-4-yl)phenyl)acrylamide), which corresponds to compound 3 in Table I, was evaluated in mice. As used herein, “test compound” refers to compound 3. The study was carried out using three animals per dosing group. Animals were dosed as follows: a) Group 1 were administered 5 mg/kg of test compound by i.v. administration; b) Group 2 were dosed at 10 mg/kg by oral gavage using the base form of the test compound; and c) Group 3 were dosed at 10 mg/kg by oral gavage using a HCl salt of the test compound. Plasma concentration of the test compound was determined on samples take at the following time points: 0.08, 0.25, 0.50, 1, 2, 4, 8, and 24 hrs. Individual values were within 25% of the mean.

[8] = po, 10 mg/kg, p.o. (HCl salt), 10 mg/kg oral gavage
[9] = po, 10 mg/kg, p.o. (base form), 10 mg/kg oral gavage

T5 sequence (P08684 whole entry): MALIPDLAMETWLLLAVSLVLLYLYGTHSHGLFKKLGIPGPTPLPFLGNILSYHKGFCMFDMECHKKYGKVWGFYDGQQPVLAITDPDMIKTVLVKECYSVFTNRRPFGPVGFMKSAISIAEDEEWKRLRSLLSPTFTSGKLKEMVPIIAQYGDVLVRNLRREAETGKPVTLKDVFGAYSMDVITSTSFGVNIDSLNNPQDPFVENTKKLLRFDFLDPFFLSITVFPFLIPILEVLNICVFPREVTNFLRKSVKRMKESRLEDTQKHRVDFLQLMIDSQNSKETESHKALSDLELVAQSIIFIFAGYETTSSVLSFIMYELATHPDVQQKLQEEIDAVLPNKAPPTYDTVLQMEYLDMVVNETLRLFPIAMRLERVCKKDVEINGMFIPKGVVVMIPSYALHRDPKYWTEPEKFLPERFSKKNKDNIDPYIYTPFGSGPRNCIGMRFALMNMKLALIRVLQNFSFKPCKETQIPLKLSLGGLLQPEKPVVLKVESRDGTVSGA
T4 sequence (P10635 whole entry): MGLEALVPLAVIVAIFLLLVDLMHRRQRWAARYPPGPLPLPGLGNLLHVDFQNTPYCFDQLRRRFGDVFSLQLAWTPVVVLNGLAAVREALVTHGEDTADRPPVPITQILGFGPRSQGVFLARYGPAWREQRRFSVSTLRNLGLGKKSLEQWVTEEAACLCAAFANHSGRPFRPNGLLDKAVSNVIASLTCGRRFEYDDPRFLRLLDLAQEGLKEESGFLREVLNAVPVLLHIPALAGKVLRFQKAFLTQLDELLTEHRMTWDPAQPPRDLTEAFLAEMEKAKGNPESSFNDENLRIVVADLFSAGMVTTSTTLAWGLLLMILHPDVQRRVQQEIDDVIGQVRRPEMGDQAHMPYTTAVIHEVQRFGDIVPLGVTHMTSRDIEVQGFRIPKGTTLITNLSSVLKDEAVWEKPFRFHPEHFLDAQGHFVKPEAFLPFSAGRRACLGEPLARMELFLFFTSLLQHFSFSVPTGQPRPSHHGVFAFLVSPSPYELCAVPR
T2 sequence (P33261 whole entry): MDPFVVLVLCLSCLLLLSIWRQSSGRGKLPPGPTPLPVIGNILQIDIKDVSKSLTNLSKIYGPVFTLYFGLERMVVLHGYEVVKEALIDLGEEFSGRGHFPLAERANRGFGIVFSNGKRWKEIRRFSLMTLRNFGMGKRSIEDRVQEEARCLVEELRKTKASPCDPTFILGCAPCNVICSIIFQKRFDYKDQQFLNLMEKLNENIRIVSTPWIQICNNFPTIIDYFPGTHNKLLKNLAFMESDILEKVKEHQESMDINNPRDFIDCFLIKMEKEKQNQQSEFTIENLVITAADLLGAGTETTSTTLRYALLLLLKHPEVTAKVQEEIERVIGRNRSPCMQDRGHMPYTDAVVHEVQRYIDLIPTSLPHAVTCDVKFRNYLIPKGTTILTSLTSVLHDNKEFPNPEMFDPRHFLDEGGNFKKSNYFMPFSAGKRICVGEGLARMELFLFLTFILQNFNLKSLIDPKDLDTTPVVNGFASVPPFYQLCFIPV
T3 sequence (P11712 whole entry): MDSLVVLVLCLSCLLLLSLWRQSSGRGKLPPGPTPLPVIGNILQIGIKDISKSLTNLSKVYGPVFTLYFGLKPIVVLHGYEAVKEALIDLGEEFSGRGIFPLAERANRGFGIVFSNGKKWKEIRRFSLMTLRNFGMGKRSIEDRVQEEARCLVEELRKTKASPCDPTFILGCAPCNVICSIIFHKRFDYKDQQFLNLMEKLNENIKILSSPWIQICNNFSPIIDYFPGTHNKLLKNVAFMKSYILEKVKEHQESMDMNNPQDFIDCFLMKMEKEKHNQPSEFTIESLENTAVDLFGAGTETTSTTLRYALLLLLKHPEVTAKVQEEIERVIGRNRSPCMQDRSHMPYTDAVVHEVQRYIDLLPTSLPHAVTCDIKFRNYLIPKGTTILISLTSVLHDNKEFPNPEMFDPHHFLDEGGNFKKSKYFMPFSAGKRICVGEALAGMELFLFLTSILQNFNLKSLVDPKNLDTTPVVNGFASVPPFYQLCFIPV

For `C=CC(=O)Nc1cccc(-c2nc(Nc3cccc(N4CCOCC4)c3)nc3[nH]ncc23)c1` [Compound 3, N-(3-(6-((3-morpholinophenyl)amino)-1H-pyrazolo[3,4-d]pyrimidin-4-yl)phenyl)acrylamide], the IC50 [1] was no less than 10 µM, the IC50 [2] was 2.63 µM and the IC50 [3] was 2.17 µM. It also gave an IC50 [4] of no less than 10 µM, an IC50 ([5]; BOMCC substrate, read-out: CYP Activity 3A4/BOMCC IC50) of 0.67 µM and an IC50 ([5]; DBOMF substrate, read-out: CYP Activity 3A4/DBOMF IC50) of 2.05 µM. For the same compound, the half-life at 1 μM ([6]; human microsomes) was 16 min, the “Compound Remaining” value ([6]; 0 min) was 100 % of initial amount and the “Compound Remaining” value ([6]; 10 min) was 61.1 % of initial amount. The “Compound Remaining” value ([6]; 20 min) was 36.0 % of initial amount, the “Compound Remaining” value ([6]; 30 min) was 20.4 % of initial amount and the “Compound Remaining” value ([6]; 60 min) was 7.89 % of initial amount. The microsomal CLint at 1 μM ([6]; human microsomes, read-out: CLinit (intrinsic clearance)) was 85 µL/min/mg, the Cmax ([7]; iv, 5 mg/kg) was 3520 ng/mL and the Tmax ([7]; iv, 5 mg/kg) was 4.8 min. It also gave a clearance ([7]; iv, 5 mg/kg) of 67 mL/min/kg, a half-life ([7]; iv, 5 mg/kg) of 90 min and an AUC(0-t) ([7]; iv, 5 mg/kg, i.v., 5 mg/kg, read-out: AUC0-4) of 1180 ng·h/mL. For the same compound, the AUC(0-t) ([7]; iv, 5 mg/kg, i.v., 5 mg/kg, read-out: AUC0-t) was 1230 ng·h/mL, the Vd ([7]; iv, 5 mg/kg, read-out: Vss) was 2.6 L/kg and the Cmax [7, 8] was 465 ng/mL. For the same compound, the Tmax [7, 8] was 15 min, the bioavailability [7, 8] was 3% and the AUC(0-t) ([7]; po, 10 mg/kg, p.o. (HCl salt), 10 mg/kg oral gavage, read-out: AUC0-4) was 357 ng·h/mL. It also gave a Cmax [7, 9] of 299 ng/mL, a Tmax [7, 9] of 30 min and a bioavailability [7, 9] of 2.3%. The AUC(0-t) ([7]; po, 10 mg/kg, p.o. (base form), 10 mg/kg oral gavage, read-out: AUC0-4) was 270 ng·h/mL.
